System: male subjects
Assay: Synergetic efficiency of sulphoraphane and curcumin in four groups: training diary, HRV, RHR (Example 4)
Format: in vivo, human
Conditions: 5-day period; for muscle pain and fatigue during the day (training diary): oral daily dose, compared to the negative control (Group nC, Gatorade powder); for HRV and RHR indices (overtraining): compared to the negative control (Group nC)
Method: The synergetic efficiency of a composition comprising both sulphoraphane and curcumin, was analysed. This analysis was realized, for monitoring the performances and recuperation of subjects, after doing a daily physical activity. The monitoring was done by means of a training diary which had to be completed three times a day, as well as by measuring the 'heart rate variability' (HRV), and the 'rest hear rate' (RHR) of these subjects. The HRV was analysed under controlled laboratory circumstances, before and after doing the prescribed daily physical activity. Analogously, the RHR was analysed under controlled laboratory circumstances, before and after doing the prescribed daily physical activity. The training diary was made up of a questionnaire, which needed to be completed by means of a scale of five (scale of […]). Questions were asked about possible muscle pain of the subjects, but also for example their energy level during the different moments of the day. 37 male subjects were selected to take part in the experiment. Their physical characteristics were as follows (average and SD): age 27.6 SD:1.6 years; weight 79.3 SD:2.1 kg; length 184 SD:3 cm. The subjects were divided into 4 groups: a group receiving only curcumin (Group C, n=10) (daily dose of 50 mg), a group receiving only sulphoraphane (Group S, n=10) (daily dose 25 mg), a group receiving both curcumin and sulphoraphane (Group C+S, n=10) (the same concentrations as the controls), and finally, a negative control was included in the experiment, it comprises a group receiving a similar dose of placebo, thereto Gatorade powder was used (Group nC, n=7). Each subject was asked to take a prescribed daily dose for five successive days. Each dose was dissolved in hot water. During this period, the subjects also had to follow a similar protein diet. The whole experiment was divided into 4 time periods, here, the different groups were tested successively. Between the different time periods, a two-week period was provided in which no experiment was carried out. The different compositions were administered orally every day in the form of a powder or dispersed in a drink. The daily dose of this powder for Group C comprised […] and 950 mg of Gatorade powder. The daily dose of this powder for Group S comprised […] and 950 mg of Gatorade powder. The daily dose of this powder for Group C+S comprised 25 mg of sulphoraphane, 50 mg of curcumin and 950 mg of Gatorade powder. The daily dose of this powder for Group nC comprised 1000 mg of Gatorade powder.

SMILES	muscle pain and fatigue during the day (training diary)	HRV and RHR indices (overtraining)
COc1cc(/C=C/C(=O)CC(=O)/C=C/c2ccc(O)c(OC)c2)ccc1O [Group C, curcumin]	less muscle pain and fatigue	will probably overtrain less
C[S+]([O-])CCCCN=C=S (stereo not shown) [Group S, 1-isothiocyanato-4-methyl sulfinyl butane]	less muscle pain and fatigue	will probably overtrain less
